From ChEMBL document CHEMBL4507319 (2021)

What was measured:
[1] = molecular target: Calcium/calmodulin-dependent protein kinase type II subunit beta (Homo sapiens) (UniProt Q13554); experiment: CaMKIIbeta(h) Eurofins kinase panel; details: Compound concentration 1.0 uM
[2] = molecular target: Serine/threonine-protein kinase MARK2 (Homo sapiens) (UniProt Q7KZI7); experiment: PAR-1Balpha(h) Eurofins kinase panel; details: Compound concentration 1.0 uM
[3] = molecular target: T1, Phosphatidylinositol 3-kinase C2 domain-containing subunit gamma (Homo sapiens) (UniProt O75747); experiment: PI3KC2g(h) Eurofins kinase panel; details: Compound concentration 1.0 uM
T1 sequence (whole entry): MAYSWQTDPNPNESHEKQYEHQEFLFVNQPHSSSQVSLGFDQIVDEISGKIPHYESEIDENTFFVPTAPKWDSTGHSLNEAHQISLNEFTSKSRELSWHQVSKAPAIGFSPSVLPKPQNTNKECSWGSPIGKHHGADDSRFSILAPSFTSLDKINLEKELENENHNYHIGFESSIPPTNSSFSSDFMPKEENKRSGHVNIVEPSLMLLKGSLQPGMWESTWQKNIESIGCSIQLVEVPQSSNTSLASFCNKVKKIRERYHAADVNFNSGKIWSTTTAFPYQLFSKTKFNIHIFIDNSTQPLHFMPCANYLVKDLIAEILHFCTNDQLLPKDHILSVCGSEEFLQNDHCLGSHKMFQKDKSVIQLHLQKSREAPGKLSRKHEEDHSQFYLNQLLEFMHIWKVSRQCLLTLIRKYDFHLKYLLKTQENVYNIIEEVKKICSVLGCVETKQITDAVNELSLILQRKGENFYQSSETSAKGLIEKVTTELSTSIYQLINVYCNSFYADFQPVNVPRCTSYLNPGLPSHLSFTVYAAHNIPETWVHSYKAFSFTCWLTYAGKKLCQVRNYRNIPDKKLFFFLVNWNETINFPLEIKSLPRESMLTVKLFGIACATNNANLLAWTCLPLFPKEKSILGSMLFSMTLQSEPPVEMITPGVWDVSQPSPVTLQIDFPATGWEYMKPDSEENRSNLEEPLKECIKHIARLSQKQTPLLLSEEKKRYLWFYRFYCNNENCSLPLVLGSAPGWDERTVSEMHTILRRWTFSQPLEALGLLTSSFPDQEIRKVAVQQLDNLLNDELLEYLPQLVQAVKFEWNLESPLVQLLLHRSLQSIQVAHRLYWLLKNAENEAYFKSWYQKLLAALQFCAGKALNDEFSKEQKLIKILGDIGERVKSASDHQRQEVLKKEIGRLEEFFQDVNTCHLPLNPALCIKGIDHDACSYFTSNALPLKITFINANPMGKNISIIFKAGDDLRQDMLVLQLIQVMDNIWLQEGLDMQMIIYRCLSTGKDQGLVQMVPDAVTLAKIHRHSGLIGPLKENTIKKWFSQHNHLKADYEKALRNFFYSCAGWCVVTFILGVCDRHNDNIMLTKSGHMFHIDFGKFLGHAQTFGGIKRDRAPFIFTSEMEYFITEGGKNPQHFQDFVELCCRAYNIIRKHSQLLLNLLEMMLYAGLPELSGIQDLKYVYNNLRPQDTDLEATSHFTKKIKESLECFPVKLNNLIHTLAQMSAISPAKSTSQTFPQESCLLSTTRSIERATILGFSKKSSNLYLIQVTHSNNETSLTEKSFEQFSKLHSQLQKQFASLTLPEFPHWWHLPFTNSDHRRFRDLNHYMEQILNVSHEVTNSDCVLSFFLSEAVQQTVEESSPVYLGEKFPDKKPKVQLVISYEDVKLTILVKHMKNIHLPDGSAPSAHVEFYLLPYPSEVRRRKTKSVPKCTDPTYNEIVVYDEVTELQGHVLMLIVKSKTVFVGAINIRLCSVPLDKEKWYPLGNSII

[4] = molecular target: T2, Rhodopsin kinase GRK1 (Homo sapiens) (UniProt Q15835); experiment: GRK1(h) Eurofins kinase panel; details: Compound concentration 1.0 uM
T2 sequence (whole entry): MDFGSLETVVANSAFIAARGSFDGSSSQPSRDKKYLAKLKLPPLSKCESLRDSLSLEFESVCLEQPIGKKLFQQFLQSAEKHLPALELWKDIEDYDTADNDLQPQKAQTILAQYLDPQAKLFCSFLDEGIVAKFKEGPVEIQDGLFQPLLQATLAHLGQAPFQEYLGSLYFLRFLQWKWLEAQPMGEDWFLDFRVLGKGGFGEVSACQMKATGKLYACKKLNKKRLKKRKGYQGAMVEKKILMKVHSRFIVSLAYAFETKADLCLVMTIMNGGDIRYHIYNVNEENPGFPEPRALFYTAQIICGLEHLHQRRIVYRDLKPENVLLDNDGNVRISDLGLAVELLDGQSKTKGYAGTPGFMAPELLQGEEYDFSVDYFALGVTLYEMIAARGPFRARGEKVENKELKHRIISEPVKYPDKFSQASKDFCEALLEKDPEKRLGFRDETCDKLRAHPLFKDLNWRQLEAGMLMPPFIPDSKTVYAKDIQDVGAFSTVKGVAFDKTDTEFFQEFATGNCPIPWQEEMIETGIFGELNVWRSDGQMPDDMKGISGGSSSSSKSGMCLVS

[5] = molecular target: CDK3/cyclin E (Homo sapiens) (UniProt P24864+O96020+Q00526); experiment: CDK3/cyclinE(h) Eurofins kinase panel; assay type: protein-complex assay; details: Compound concentration 1.0 uM
Chain of CDK3/cyclin E (Homo sapiens) (O96020 whole entry, looked up): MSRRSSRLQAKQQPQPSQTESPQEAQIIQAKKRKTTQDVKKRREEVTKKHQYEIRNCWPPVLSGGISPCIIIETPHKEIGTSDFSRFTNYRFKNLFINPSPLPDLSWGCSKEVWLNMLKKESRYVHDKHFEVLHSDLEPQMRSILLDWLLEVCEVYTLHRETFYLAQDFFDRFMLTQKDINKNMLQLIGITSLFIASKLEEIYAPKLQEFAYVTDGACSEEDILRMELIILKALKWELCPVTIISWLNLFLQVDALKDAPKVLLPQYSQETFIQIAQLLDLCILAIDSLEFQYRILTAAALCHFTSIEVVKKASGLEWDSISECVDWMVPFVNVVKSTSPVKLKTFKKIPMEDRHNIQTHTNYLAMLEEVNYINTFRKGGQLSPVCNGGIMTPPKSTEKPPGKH
Chain of CDK3/cyclin E (Homo sapiens) (P24864 whole entry, looked up): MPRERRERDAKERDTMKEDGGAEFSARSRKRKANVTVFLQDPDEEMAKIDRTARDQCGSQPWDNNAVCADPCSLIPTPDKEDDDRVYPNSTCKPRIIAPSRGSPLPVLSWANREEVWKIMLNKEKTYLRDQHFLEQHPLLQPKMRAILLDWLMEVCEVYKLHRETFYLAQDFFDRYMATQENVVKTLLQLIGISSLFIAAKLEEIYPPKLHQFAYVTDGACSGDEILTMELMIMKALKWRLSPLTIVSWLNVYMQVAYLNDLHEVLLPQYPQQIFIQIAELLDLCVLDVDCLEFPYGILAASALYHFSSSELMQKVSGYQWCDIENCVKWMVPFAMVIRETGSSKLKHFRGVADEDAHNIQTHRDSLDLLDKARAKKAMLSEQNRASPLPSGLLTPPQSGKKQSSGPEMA
Chain of CDK3/cyclin E (Homo sapiens) (Q00526 whole entry, looked up): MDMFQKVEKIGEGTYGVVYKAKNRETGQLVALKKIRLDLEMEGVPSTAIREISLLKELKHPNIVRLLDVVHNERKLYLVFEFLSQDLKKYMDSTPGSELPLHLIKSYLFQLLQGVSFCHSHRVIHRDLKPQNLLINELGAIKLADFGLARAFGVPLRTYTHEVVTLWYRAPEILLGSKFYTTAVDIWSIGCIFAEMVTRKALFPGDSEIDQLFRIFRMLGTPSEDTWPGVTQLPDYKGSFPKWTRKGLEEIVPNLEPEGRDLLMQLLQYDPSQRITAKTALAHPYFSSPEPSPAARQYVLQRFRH

[6] = molecular target: Protein kinase C delta type (Homo sapiens) (UniProt Q05655); experiment: PKCdelta (h) Eurofins kinase panel; details: Compound concentration 1.0 uM
Chain of Protein kinase C delta type (Homo sapiens) (Q05655 whole entry, looked up): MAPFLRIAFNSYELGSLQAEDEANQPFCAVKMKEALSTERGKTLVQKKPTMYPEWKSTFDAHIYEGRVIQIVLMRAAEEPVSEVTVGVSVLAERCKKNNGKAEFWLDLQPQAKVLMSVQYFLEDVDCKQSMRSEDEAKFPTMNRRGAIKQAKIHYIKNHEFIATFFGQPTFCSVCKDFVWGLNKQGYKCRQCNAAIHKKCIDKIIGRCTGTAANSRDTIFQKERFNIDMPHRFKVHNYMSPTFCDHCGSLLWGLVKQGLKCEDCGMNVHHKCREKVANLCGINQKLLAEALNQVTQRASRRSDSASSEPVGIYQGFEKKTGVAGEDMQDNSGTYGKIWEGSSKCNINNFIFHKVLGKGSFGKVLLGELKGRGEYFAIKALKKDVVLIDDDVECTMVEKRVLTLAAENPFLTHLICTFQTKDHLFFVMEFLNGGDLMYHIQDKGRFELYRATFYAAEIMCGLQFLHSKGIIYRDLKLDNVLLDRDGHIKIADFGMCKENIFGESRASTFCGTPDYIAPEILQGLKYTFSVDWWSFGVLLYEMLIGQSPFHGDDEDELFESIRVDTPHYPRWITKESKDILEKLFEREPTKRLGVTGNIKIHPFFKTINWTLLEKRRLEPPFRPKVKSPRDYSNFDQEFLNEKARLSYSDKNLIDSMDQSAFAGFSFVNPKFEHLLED

[7] = molecular target: Leucine-rich repeat serine/threonine-protein kinase 2 (Homo sapiens) (UniProt Q5S007); experiment: LRRK2(h) Eurofins kinase panel; details: Compound concentration 1.0 uM
Ramos = experiment: Ramos cell line Proliferation assay; assay type: functional, Homo sapiens; details: time 3 day

Chain of Serine/threonine-protein kinase MARK2 (Homo sapiens) (Q7KZI7 whole entry, the tested form may be a part): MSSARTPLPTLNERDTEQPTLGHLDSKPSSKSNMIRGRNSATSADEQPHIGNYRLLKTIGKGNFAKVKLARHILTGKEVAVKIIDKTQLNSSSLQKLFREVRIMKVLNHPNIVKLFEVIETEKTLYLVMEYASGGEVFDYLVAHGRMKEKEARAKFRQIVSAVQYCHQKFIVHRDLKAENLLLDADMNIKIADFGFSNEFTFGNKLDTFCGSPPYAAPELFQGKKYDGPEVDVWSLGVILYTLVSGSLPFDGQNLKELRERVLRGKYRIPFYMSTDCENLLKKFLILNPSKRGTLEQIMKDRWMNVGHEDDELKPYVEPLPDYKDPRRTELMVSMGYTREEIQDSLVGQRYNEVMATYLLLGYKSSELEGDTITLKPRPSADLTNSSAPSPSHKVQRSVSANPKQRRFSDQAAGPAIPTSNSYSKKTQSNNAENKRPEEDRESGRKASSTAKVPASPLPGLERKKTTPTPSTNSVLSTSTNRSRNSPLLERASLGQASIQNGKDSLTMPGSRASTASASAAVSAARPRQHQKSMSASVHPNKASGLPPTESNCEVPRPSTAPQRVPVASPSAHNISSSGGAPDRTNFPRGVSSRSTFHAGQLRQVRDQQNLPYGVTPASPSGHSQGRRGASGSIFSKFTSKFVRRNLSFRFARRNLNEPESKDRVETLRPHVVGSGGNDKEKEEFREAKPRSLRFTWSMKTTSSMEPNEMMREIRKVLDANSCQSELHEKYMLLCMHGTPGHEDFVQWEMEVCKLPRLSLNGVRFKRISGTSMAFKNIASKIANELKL
Chain of Calcium/calmodulin-dependent protein kinase type II subunit beta (Homo sapiens) (Q13554 whole entry): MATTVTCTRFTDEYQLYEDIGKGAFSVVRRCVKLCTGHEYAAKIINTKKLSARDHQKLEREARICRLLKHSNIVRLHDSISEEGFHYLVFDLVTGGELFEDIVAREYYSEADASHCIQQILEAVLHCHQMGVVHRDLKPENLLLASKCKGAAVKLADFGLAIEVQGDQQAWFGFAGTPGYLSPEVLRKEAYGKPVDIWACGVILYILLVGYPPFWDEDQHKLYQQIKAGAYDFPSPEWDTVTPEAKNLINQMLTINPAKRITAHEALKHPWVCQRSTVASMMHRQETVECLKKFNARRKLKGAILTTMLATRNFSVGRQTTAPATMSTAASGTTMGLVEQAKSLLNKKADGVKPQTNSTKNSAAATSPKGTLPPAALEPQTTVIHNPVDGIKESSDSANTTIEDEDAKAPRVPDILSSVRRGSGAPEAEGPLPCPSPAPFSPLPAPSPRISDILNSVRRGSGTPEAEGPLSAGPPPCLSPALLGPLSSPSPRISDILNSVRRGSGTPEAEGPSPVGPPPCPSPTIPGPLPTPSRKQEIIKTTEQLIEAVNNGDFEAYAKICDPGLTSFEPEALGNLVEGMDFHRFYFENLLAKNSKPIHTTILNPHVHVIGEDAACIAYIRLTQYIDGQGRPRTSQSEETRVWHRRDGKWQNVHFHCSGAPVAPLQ

## CCc1ccccc1C(=O)Nc1n[nH]c2c(C)c(F)c(C3C(C#N)=C(C)N(C)C(C)=C3C#N)cc12 [BAY-3827]
[1]
  % residual kinase activity: 100%
[2]
  % residual kinase activity: 32%
[3]
  % residual kinase activity: 100%
[4]
  % residual kinase activity: 72%
[5]
  % residual kinase activity: 100%
[6]
  % residual kinase activity: 69%
[7]
  % residual kinase activity: 95%
Ramos
  Cell Proliferation IC50: 12.1 µM
